Results published in ChEMBL document CHEMBL1201862, “PubChem BioAssay data set” (2004).
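Cultured in 96-well plates, cells were exposed to test compound for 48 hours across five concentrations. Abbreviation: GI50, concentration required for 50% inhibition of growth.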 Activity calls are given as the source filed them. Cut-off read from the data, not from the text of the source: active = GI50 up to about 1.1 µM and inactive = higher.

Key:
Test in all cases: DTP human tumour cell line panel, 48 h
UO-31 = tested on: UO-31
MOLT-4 = tested on: MOLT-4
NCI-H23 = tested on: NCI-H23
OVCAR-4 = tested on: OVCAR-4
EKVX = tested on: EKVX
SF-539 = tested on: SF-539
SF-295 = tested on: SF-295
CAKI-1 = tested on: CAKI-1
SW-620 = tested on: SW-620
SK-OV-3 = tested on: SK-OV-3
COLO 205 = tested on: COLO 205
U-251 = tested on: U-251
UACC-62 = tested on: UACC-62
Malme-3M = tested on: Malme-3M
TK-10 = tested on: TK-10
LOX IMVI = tested on: LOX IMVI
HOP-92 = tested on: HOP-92

Compound	GI50 (UO-31)	GI50 (MOLT-4)	GI50 (NCI-H23)	GI50 (OVCAR-4)	GI50 (EKVX)	GI50 (SF-539)	GI50 (SF-295)	GI50 (CAKI-1)	GI50 (SW-620)	GI50 (SK-OV-3)	GI50 (COLO 205)	GI50 (U-251)	GI50 (UACC-62)	GI50 (Malme-3M)	GI50 (TK-10)	GI50 (LOX IMVI)	GI50 (HOP-92)
N#C/C(=C/c1ccc2c(c1)OCO2)C(=O)c1ccccc1	> 100 µM (inactive)	> 100 µM (inactive)	> 100 µM (inactive)	> 100 µM (inactive)	> 100 µM (inactive)	> 100 µM (inactive)	> 100 µM (inactive)	> 100 µM (inactive)	> 100 µM (inactive)	> 100 µM (inactive)	> 100 µM (inactive)	> 100 µM (inactive)	> 100 µM (inactive)	> 100 µM (inactive)	> 100 µM (inactive)	–	–
Cc1ccc(S(=O)(=O)N/N=C(/CC(=O)c2c(C)[n+]([O-])c3ccccc3[n+]2[O-])C(=O)Nc2ccc(C)c(C)c2)cc1	> 100 µM (inactive)	–	> 100 µM (inactive)	33 µM (inactive)	> 100 µM (inactive)	> 100 µM (inactive)	> 100 µM (inactive)	> 100 µM (inactive)	33.7 µM (inactive)	> 100 µM (inactive)	34.7 µM (inactive)	28.5 µM (inactive)	79.8 µM (inactive)	> 100 µM (inactive)	–	–	–
O=C1c2ccccc2C2(O)N(c3ccccc3)C(=S)N(c3ccccc3)C12O (stereo not given)	92.7 µM (inactive)	> 100 µM (inactive)	> 100 µM (inactive)	> 100 µM (inactive)	> 100 µM (inactive)	> 100 µM (inactive)	> 100 µM (inactive)	> 100 µM (inactive)	> 100 µM (inactive)	> 100 µM (inactive)	> 100 µM (inactive)	> 100 µM (inactive)	> 100 µM (inactive)	> 100 µM (inactive)	> 100 µM (inactive)	> 100 µM (inactive)	–
Cc1ccccc1/C=C/C(=O)c1ccccc1	21.7 µM (inactive)	18.7 µM (inactive)	17.6 µM (inactive)	13.3 µM (inactive)	17.5 µM (inactive)	15.1 µM (inactive)	–	19.4 µM (inactive)	> 10 µM (inactive)	27.4 µM (inactive)	21.4 µM (inactive)	16.8 µM (inactive)	19.9 µM (inactive)	18.1 µM (inactive)	–	–	20.5 µM (inactive)
COc1ccccc1NC(=O)C1=C(C)NC(C)=C(C(=O)Nc2ccccc2OC)C1C1=CC=COC1	25.9 µM (inactive)	13.3 µM (inactive)	23.9 µM (inactive)	30.5 µM (inactive)	10.8 µM (inactive)	12.2 µM (inactive)	6.73 µM (inactive)	4.65 µM (inactive)	6.7 µM (inactive)	10.4 µM (inactive)	57 µM (inactive)	9.71 µM (inactive)	3.3 µM (inactive)	5.68 µM (inactive)	16.5 µM (inactive)	–	25.9 µM (inactive)
COC1CC(O)C(OC(=O)c2ccccc2)C(C)O1 (stereo not given)	–	> 100 µM (inactive)	> 100 µM (inactive)	> 100 µM (inactive)	–	> 100 µM (inactive)	> 100 µM (inactive)	> 100 µM (inactive)	> 100 µM (inactive)	–	> 100 µM (inactive)	> 100 µM (inactive)	> 100 µM (inactive)	> 100 µM (inactive)	> 100 µM (inactive)	> 100 µM (inactive)	> 100 µM (inactive)
COc1ccc(-c2cc(=O)c3cc(C)c(C)c(C(=O)O)c3o2)cc1	> 100 µM (inactive)	> 100 µM (inactive)	> 100 µM (inactive)	> 100 µM (inactive)	> 100 µM (inactive)	> 100 µM (inactive)	> 100 µM (inactive)	> 100 µM (inactive)	> 100 µM (inactive)	> 100 µM (inactive)	> 100 µM (inactive)	> 100 µM (inactive)	13.6 µM (inactive)	–	–	–	< 0.01 µM (active)
CC1(c2cccc(C3CC4(CCC3=O)OCCCCO4)c2)OCCO1 (stereo not given)	> 100 µM (inactive)	> 100 µM (inactive)	> 100 µM (inactive)	> 100 µM (inactive)	–	> 100 µM (inactive)	> 100 µM (inactive)	> 100 µM (inactive)	> 100 µM (inactive)	> 100 µM (inactive)	> 100 µM (inactive)	> 100 µM (inactive)	> 100 µM (inactive)	> 100 µM (inactive)	> 100 µM (inactive)	> 100 µM (inactive)	–
COc1ccc(OC)c2cc(C3(C)SCCCS3)ccc12	> 100 µM (inactive)	89.7 µM (inactive)	84.3 µM (inactive)	60.3 µM (inactive)	> 100 µM (inactive)	> 100 µM (inactive)	78.2 µM (inactive)	61 µM (inactive)	> 100 µM (inactive)	> 100 µM (inactive)	> 100 µM (inactive)	19.3 µM (inactive)	> 100 µM (inactive)	> 100 µM (inactive)	> 100 µM (inactive)	> 100 µM (inactive)	–
O=C(NC1CC1)c1c(O)[nH]c(=S)[nH]c1=O	> 100 µM (inactive)	> 100 µM (inactive)	> 100 µM (inactive)	> 100 µM (inactive)	–	> 100 µM (inactive)	> 100 µM (inactive)	> 100 µM (inactive)	> 100 µM (inactive)	> 100 µM (inactive)	> 100 µM (inactive)	> 100 µM (inactive)	> 100 µM (inactive)	> 100 µM (inactive)	> 100 µM (inactive)	> 100 µM (inactive)	> 100 µM (inactive)
C=C1C(=O)C23CC1CCC2C12CO[C@@H]4OCC(C)(CC[C@@H]1OC3=O)C42 (stereo not given in full)	9.71 µM (inactive)	3.01 µM (inactive)	6.04 µM (inactive)	–	15.5 µM (inactive)	7.14 µM (inactive)	16.9 µM (inactive)	2.38 µM (inactive)	2.49 µM (inactive)	23.3 µM (inactive)	2.1 µM (inactive)	14 µM (inactive)	11.7 µM (inactive)	2.3 µM (inactive)	5.75 µM (inactive)	–	2.64 µM (inactive)
COc1ncn(C2C=C(CO)C(O)C2O)c(=O)n1 (stereo not given)	> 100 µM (inactive)	> 100 µM (inactive)	–	> 100 µM (inactive)	> 100 µM (inactive)	> 100 µM (inactive)	–	< 0.01 µM (active)	< 0.01 µM (active)	> 100 µM (inactive)	> 100 µM (inactive)	> 100 µM (inactive)	> 100 µM (inactive)	> 100 µM (inactive)	> 100 µM (inactive)	–	–
O=C(N/N=C/c1cccc(F)c1)c1ccncc1	–	> 100 µM (inactive)	> 100 µM (inactive)	> 10 µM (inactive)	–	–	> 100 µM (inactive)	> 10 µM (inactive)	> 100 µM (inactive)	> 100 µM (inactive)	> 100 µM (inactive)	> 100 µM (inactive)	–	> 100 µM (inactive)	> 100 µM (inactive)	> 100 µM (inactive)	> 100 µM (inactive)
